Test results as given in ChEMBL document CHEMBL6078694, “Divergent Metabolism of Cyclo-l-Trp-l-Leu in Streptomyces albofaciens by Hydroxylation and Nucleobase Transfer with Two Cytochrome P450 Enzymes” (J Nat Prod, 2024).
Activity calls are given as the source filed them.

Legend:
Type in all cases: functional, organism-based
Conditions in all cases: time 16-20 hrs
[1] = system: Escherichia coli; experiment: Antibacterial activity against Escherichia coli ATCC 35218 assessed as reduction in bacterial growth measured after 16 to 20 hrs by agar disk diffusion method
[2] = system: Enterococcus faecalis; experiment: Antibacterial activity against Enterococcus faecalis DSM 2570 assessed as reduction in bacterial growth measured after 16 to 20 hrs by agar disk diffusion method
[3] = system: Klebsiella pneumoniae; experiment: Antibacterial activity against Klebsiella pneumoniae DSM 26371 assessed as reduction in bacterial growth measured after 16 to 20 hrs by agar disk diffusion method
[4] = system: Bacillus subtilis; experiment: Antibacterial activity against Bacillus subtilis NCLB3610 assessed as reduction in bacterial growth measured after 16 to 20 hrs by agar disk diffusion method
[5] = system: Niallia circulans; experiment: Antibacterial activity against Bacillus circulans NRRL B-380 assessed as reduction in bacterial growth measured after 16 to 20 hrs by agar disk diffusion method
[6] = system: Staphylococcus aureus; experiment: Antibacterial activity against Staphylococcus aureus ATCC29213 assessed as reduction in bacterial growth measured after 16 to 20 hrs by agar disk diffusion method
[7] = system: Staphylococcus delphini; experiment: Antibacterial activity against Staphylococcus delphini DSM 20771 assessed as reduction in bacterial growth measured after 16 to 20 hrs by agar disk diffusion method
[8] = system: Pseudomonas aeruginosa; experiment: Antibacterial activity against Pseudomonas aeruginosa ATCC 27853 assessed as reduction in bacterial growth measured after 16 to 20 hrs by agar disk diffusion method

Measured: Activity

CC(C)C[C@@H]1NC(=O)[C@H]([C@@H](O)c2c[nH]c3ccccc23)NC1=O
inactive: [1] | [2] | [3] | [4] | [5] | [6] | [7] | [8]

CC(C)C[C@@H]1NC(=O)[C@@H]2C[C@]3(c4nc5c(=O)[nH]c(N)nc5[nH]4)c4ccccc4N[C@@H]3N2C1=O
inactive: [1] | [2] | [3] | [4] | [5] | [6] | [7] | [8]
